Laboratory results as given in the supplement of paper PMC10307832.

Key:
Test in all cases: relative viability (nuclei count vs DMSO), 5 days (fraction); higher = more cells survive
Ruboxistaurin = compound: CN(C)C[C@@H]1CCn2cc(c3ccccc32)C2=C(C(=O)NC2=O)c2cn(c3ccccc23)CCO1 [Ruboxistaurin]
Outline: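 Cells of lung cancer lines were placed in 1536-well plates and kept overnight at 37 °C. Pinning then delivered five library-drug doses (not always all listed), spaced by √10, onto plates anchored with vehicle, and the cells were left 5 days without changing medium. One step fixed, permeabilised and stained them with Hoechst, and MetaXpress counted nuclei in 4× images. Viability, as a median over plates, is treated-well nuclei divided by vehicle-well nuclei, with acceptance only at control CV below 25% and at least one doubling.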

[1] = compound: CN(C)C[C@@H]1CCn2cc(c3ccccc32)C2=C(C(=O)NC2=O)c2cn(c3ccccc23)CCO1 [Ruboxistaurin] + CC(C)C[C@H](NC(=O)[C@H](Cc1ccccc1)NC(=O)c1cnccn1)B(O)O [Bortezomib] (partner 0.002 µM)
Outline: (§1)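 The day after seeding in 1536-well plates, lung cancer cell lines were treated by pin tool with a single drug, or with a fixed anchor-drug dose together with five library-drug doses (not always all listed) in √10 steps. After 5 days, a combined fix-and-stain solution (final 0.05% Triton X-100, 1% formaldehyde, 1 ug/ml Hoechst) was added. Nuclei counted on 4× images gave relative viability as treated counts over vehicle counts, reported as the median of duplicate plates.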

[2] = compound: CN(C)C[C@@H]1CCn2cc(c3ccccc32)C2=C(C(=O)NC2=O)c2cn(c3ccccc23)CCO1 [Ruboxistaurin] + CC1(C)CCC(c2ccc(Cl)cc2)=C(CN2CCN(c3ccc(C(=O)NS(=O)(=O)c4ccc(N[C@H](CCN5CCOCC5)CSc5ccccc5)c(S(=O)(=O)C(F)(F)F)c4)cc3)CC2)C1 [Navitoclax] (partner 0.5 µM)
Outline: as §1

[3] = compound: CN(C)C[C@@H]1CCn2cc(c3ccccc32)C2=C(C(=O)NC2=O)c2cn(c3ccccc23)CCO1 [Ruboxistaurin] + COc1cc2c(Oc3ccc(NC(=O)C4(C(=O)Nc5ccc(F)cc5)CC4)cc3F)ccnc2cc1OCCCN1CCOCC1 [Foretinib] (partner 0.25 µM)
Outline: as §1

[4] = compound: CN(C)C[C@@H]1CCn2cc(c3ccccc32)C2=C(C(=O)NC2=O)c2cn(c3ccccc23)CCO1 [Ruboxistaurin] + CS(=O)(=O)CCNCc1ccc(-c2ccc3ncnc(Nc4ccc(OCc5cccc(F)c5)c(Cl)c4)c3c2)o1 [Lapatinib] (partner 2 µM)
Outline: as §1

[5] = compound: CN(C)C[C@@H]1CCn2cc(c3ccccc32)C2=C(C(=O)NC2=O)c2cn(c3ccccc23)CCO1 [Ruboxistaurin] + CS(=O)(=O)N1CCN(Cc2cc3nc(-c4cccc5[nH]ncc45)nc(N4CCOCC4)c3s2)CC1 [Pictilisib] (partner 1 µM)
Outline: as §1

[6] = compound: CN(C)C[C@@H]1CCn2cc(c3ccccc32)C2=C(C(=O)NC2=O)c2cn(c3ccccc23)CCO1 [Ruboxistaurin] + C[C@@H](Oc1cc(-c2cnn(C3CCNCC3)c2)cnc1N)c1c(Cl)ccc(F)c1Cl [Crizotinib] (partner 1 µM)
Outline: as §1

[7] = compound: CN(C)C[C@@H]1CCn2cc(c3ccccc32)C2=C(C(=O)NC2=O)c2cn(c3ccccc23)CCO1 [Ruboxistaurin] + C[C@]1(O)C[C@@H](c2nc(-c3ccc4ccc(-c5ccccc5)nc4c3)c3c(N)nccn32)C1 [Linsitinib] (partner 1 µM)
Outline: as §1

[8] = compound: CN(C)C[C@@H]1CCn2cc(c3ccccc32)C2=C(C(=O)NC2=O)c2cn(c3ccccc23)CCO1 [Ruboxistaurin] + Cc1nc(NC(=O)N2CCC[C@H]2C(N)=O)sc1-c1ccnc(C(C)(C)C(F)(F)F)c1 [Alpelisib] (partner 2 µM)
Outline: as §1

Ruboxistaurin + Olaparib = compound: CN(C)C[C@@H]1CCn2cc(c3ccccc32)C2=C(C(=O)NC2=O)c2cn(c3ccccc23)CCO1 [Ruboxistaurin] + O=C(c1cc(Cc2n[nH]c(=O)c3ccccc23)ccc1F)N1CCN(C(=O)C2CC2)CC1 [Olaparib] (partner 8 µM)
Outline: as §1

Row | Cell Line | relative viability (Ruboxistaurin; 0.08 µM) | relative viability (Ruboxistaurin; 0.8 µM) | relative viability (Ruboxistaurin; 2.53 µM) | relative viability (Ruboxistaurin; 8 µM) | relative viability ([1]; first compound 0.08 µM) | relative viability ([1]; first compound 0.8 µM) | relative viability ([1]; first compound 2.53 µM) | relative viability ([1]; first compound 8 µM) | relative viability ([2]; first compound 0.08 µM) | relative viability ([2]; first compound 0.8 µM) | relative viability ([2]; first compound 2.53 µM) | relative viability ([2]; first compound 8 µM) | relative viability ([3]; first compound 0.08 µM) | relative viability ([3]; first compound 0.8 µM) | relative viability ([3]; first compound 2.53 µM) | relative viability ([3]; first compound 8 µM) | relative viability ([4]; first compound 0.08 µM) | relative viability ([4]; first compound 0.8 µM) | relative viability ([4]; first compound 2.53 µM) | relative viability ([4]; first compound 8 µM) | relative viability ([5]; first compound 0.08 µM) | relative viability ([5]; first compound 0.8 µM) | relative viability ([5]; first compound 2.53 µM) | relative viability ([5]; first compound 8 µM) | relative viability ([6]; first compound 0.08 µM) | relative viability ([6]; first compound 0.8 µM) | relative viability ([6]; first compound 2.53 µM) | relative viability ([6]; first compound 8 µM) | relative viability ([7]; first compound 0.08 µM) | relative viability ([7]; first compound 0.8 µM) | relative viability ([7]; first compound 2.53 µM) | relative viability ([7]; first compound 8 µM) | relative viability ([8]; first compound 0.08 µM) | relative viability ([8]; first compound 0.8 µM) | relative viability ([8]; first compound 2.53 µM) | relative viability ([8]; first compound 8 µM) | relative viability (Ruboxistaurin + Olaparib; first compound 0.08 µM) | relative viability (Ruboxistaurin + Olaparib; first compound 0.8 µM) | relative viability (Ruboxistaurin + Olaparib; first compound 2.53 µM) | relative viability (Ruboxistaurin + Olaparib; first compound 8 µM)
1 | Calu-6 | 1.07 | 0.951 | 1.06 | 0.982 | 1.12 | 0.948 | 1.1 | 1.17 | 0.967 | 0.776 | 0.862 | 1.01 | 0.949 | 0.848 | 0.93 | 0.893 | 1.15 | 1.02 | 1.08 | 0.933 | 0.94 | 0.848 | 0.795 | 0.607 | 0.899 | 0.697 | 0.807 | 0.822 | 0.978 | 0.804 | 0.913 | 0.942 | 0.95 | 0.897 | 0.981 | 0.809 | 0.635 | 0.564 | 0.669 | 0.585
2 | EBC-1 | 1.13 | 0.96 | 0.97 | 0.932 | 0.587 | 0.5 | 0.437 | 0.454 | 0.527 | 0.308 | 0.381 | 0.358 | 0.102 | 0.118 | 0.121 | 0.102 | 0.215 | 0.216 | 0.2 | 0.201 | 0.372 | 0.278 | 0.296 | 0.215 | 0.19 | 0.198 | 0.17 | 0.167 | 1.02 | 0.691 | 0.89 | 1.04 | 0.82 | 0.692 | 0.741 | 0.706 | 0.763 | 0.558 | 0.663 | 0.447
3 | NCI-H1299 | 1.06 | 1 | 1.01 | 1.09 | 1.05 | 1.02 | 1.05 | 1.08 | 1.08 | 1.01 | 1.07 | 1.06 | 1.11 | 1.11 | 1.16 | 1.21 | 0.997 | 0.931 | 0.993 | 0.962 | 0.841 | 0.51 | 0.731 | 0.45 | 0.921 | 0.978 | 0.99 | 1.02 | 1.03 | 0.921 | 0.951 | 1.15 | 1.08 | 1.07 | 1.07 | 1.16 | 0.95 | 1.02 | 0.976 | 1.08
